Reference: ChEMBL document CHEMBL5550189, “Discovery of GS-7682, a Novel 4'-Cyano-Modified C-Nucleoside Prodrug with Broad Activity against Pneumo- and Picornaviruses and Efficacy in RSV-Infected African Green Monkeys” (J Med Chem, 2024)
The source made the active and inactive calls. The rule behind the calls is not given here.

Tests used:
[1] = Cmax in Cynomolgous monkey at 5 mg/kg, iv measured after 30 mins by LC-MS/MS analysis; format: ADME, organism-based, Macaca fascicularis; settings: cynomolgus monkey, in vivo
[2] = Drug metabolism in Cynomolgous monkey assessed as half life of (2R,3S,4R,5S)-5-(4-aminopyrrolo[2,1-f][1,2,4]triazin-7-yl)-3,4-dihydroxy-2-(hydroxymethyl)tetrahydrofuran-2-carbonitrile metabolite at lung-deposited dose of 4 mg/kg, IT measured after 24 hrs by LC-MS/MS analysis; format: ADME, organism-based, Macaca fascicularis; settings: cynomolgus monkey, in vivo, other
[3] = Drug metabolism in Cynomolgous monkey assessed as half life of (2R,3S,4R,5S)-5-(4-aminopyrrolo[2,1-f][1,2,4]triazin-7-yl)-3,4-dihydroxy-2-(hydroxymethyl)tetrahydrofuran-2-carbonitrile metabolite at 5 mg/kg, iv measured after 30 mins by LC-MS/MS analysis; format: ADME, organism-based, Macaca fascicularis; settings: cynomolgus monkey, in vivo, 0.5 h
[4] = test system: Respiratory syncytial virus; experiment: Antiviral activity against RSV A2 infected in D-HBE-As cells assessed as inhibition of intracellular virus replication; format: functional, organism-based; settings: human respiratory syncytial virus
[5] = test system: Respiratory syncytial virus; experiment: Antiviral activity against Fluc-fused RSV A2 infected in D-HBE-As cells incubated for 3 days by ONE Glo luciferase assay; format: functional, organism-based; settings: human respiratory syncytial virus, 72 h
[6] = Cytotoxicity against human MT4 cells incubated for 5 days by Cell Titer Glo assay; format: toxicity, cell-based; settings: time 5 day
[7] = test system: Respiratory syncytial virus; experiment: Antiviral activity against RSV infected in African green monkey assessed as reduction in viral RNA copies in BAL at lung-deposited dose of 1.6 to 7.6 mg/kg, IT qd for 6 days measured for 3 to 11 days by RT-qPCR analysis; format: functional, organism-based; settings: dose 1.6-7.6 mg/kg, time 11.0 day
[8] = test system: Respiratory syncytial virus; experiment: Antiviral activity against Fluc-fused RSV A2 infected in Normal human bronchial epithelial cells incubated for 3 days by ONE Glo luciferase assay; format: functional, organism-based; settings: A2, Epithelial cell, 72 h
[9] = test system: Respiratory syncytial virus; experiment: Antiviral activity against RSV infected in African green monkey assessed as reduction in viral load in nasal swabs at lung-deposited dose of 1.6 to 7.6 mg/kg, IT qd for 6 days; format: functional, organism-based; settings: dose 1.6-7.6 mg/kg, time 6.0 day
[10] = AUC (0 to 24 hrs) in African green monkey at lung-deposited dose of 5.9 mg/kg, IT measured after 24 hrs by LC-MS/MS analysis; format: ADME, organism-based; settings: chlorocebus aethiops, in vivo
[11] = test system: Respiratory syncytial virus; experiment: Antiviral activity against RSV A2 infected in human airway epithelium transwell culture assessed as decrease in viral RNA level by measuring log10 reduction in median viral load at 0.05 uM pretreated at apical side for 3 hrs followed by compound washout and subsequent viral infection at apical side for 3 hrs followed by removal of virus and recurrent addition of compound on day 1 and 2 at basolateral side measured on day 3 by RT-qPCR analysis; format: functional; settings: time 75 hrs
[12] = test system: enterovirus D68; experiment: Anti-viral activity against EV-D68 (18952) infected in human RD cells by MTS assay; format: functional, organism-based; settings: Enterovirus D, 18952, RD
[13] = Prodrug conversion in D-HBE-As cells assessed as ((2R,3S,4R,5S)-5-(4-aminopyrrolo[2,1-f][1,2,4]triazin-7-yl)-2-cyano-3,4-dihydroxytetrahydrofuran-2-yl)methyl tetrahydrogen triphosphate formation measured per million cells at 1 uM measured after 48 hrs by LC-MS/MS analysis; format: ADME, cell-based; settings: human
[14] = test system: Respiratory syncytial virus; experiment: Antiviral activity against RSV A2 infected in human airway epithelium transwell culture assessed as decrease in viral RNA level by measuring log10 reduction in median viral load at 0.01 uM pretreated at apical side for 3 hrs followed by compound washout and subsequent viral infection at apical side for 3 hrs followed by removal of virus and recurrent addition of compound on day 0 at apical side measured on day 3 by RT-qPCR analysis; format: functional; settings: time 75 hrs
[15] = Cytotoxicity against rhesus monkey LLC-MK2 cells incubated for 5 days by MTS assay; format: toxicity, cell-based, Macaca mulatta; settings: time 5 day
[16] = Half life in African green monkey at lung-deposited dose of 5.9 mg/kg, IT measured after 24 hrs by LC-MS/MS analysis; format: ADME, organism-based; settings: chlorocebus aethiops, in vivo
[17] = test system: Respiratory syncytial virus; experiment: Antiviral activity against RSV A2 infected in human airway epithelium transwell culture assessed as decrease in viral RNA level by measuring log10 reduction in median viral load at 0.25 uM pretreated at apical side for 3 hrs followed by compound washout and subsequent viral infection at apical side for 3 hrs followed by removal of virus and recurrent addition of compound on day 0 at apical side measured on day 3 by RT-qPCR analysis; format: functional; settings: time 75 hrs
[18] = test system: Respiratory syncytial virus; experiment: Antiviral activity against Fluc-fused RSV A2 infected in D-HBE-COPD cells incubated for 3 days by ONE Glo luciferase assay; format: functional, organism-based; settings: human respiratory syncytial virus, 72 h
[19] = Drug metabolism in Cynomolgous monkey assessed as AUC (0 to 24 hrs) of (2R,3S,4R,5S)-5-(4-aminopyrrolo[2,1-f][1,2,4]triazin-7-yl)-3,4-dihydroxy-2-(hydroxymethyl)tetrahydrofuran-2-carbonitrile metabolite at 5 mg/kg, iv measured after 30 mins by LC-MS/MS analysis; format: ADME, organism-based, Macaca fascicularis; settings: cynomolgus monkey, in vivo, 0.5 h
[20] = test system: Respiratory syncytial virus; experiment: Antiviral activity against RSV infected in African green monkey assessed as log10 reduction in viral load in BAL at lung-deposited dose of 1.6 to 7.6 mg/kg, IT qd measured after 5 days by RT-qPCR analysis; format: functional; settings: dose 1.6-7.6 mg/kg, time 5 day
[21] = Cmax in Cynomolgous monkey at lung-deposited dose of 4 mg/kg, IT measured after 24 hrs by LC-MS/MS analysis; format: ADME, organism-based, Macaca fascicularis; settings: cynomolgus monkey, in vivo
[22] = Cmax in African green monkey at lung-deposited dose of 5.9 mg/kg, IT measured after 24 hrs by LC-MS/MS analysis; format: ADME, organism-based; settings: chlorocebus aethiops, in vivo
[23] = Drug concentration in lung of Cynomolgous monkey measured per gram of tissue at 5 mg/kg, iv measured after 24 hrs by LC-MS/MS analysis; format: ADME, organism-based, Macaca fascicularis; settings: cynomolgus monkey, in vivo
[24] = test system: Respiratory syncytial virus; experiment: Antiviral activity against RSV A2 infected in human airway epithelium transwell culture assessed as decrease in viral RNA level by measuring log10 reduction in median viral load at 0.25 uM pretreated at apical side for 3 hrs followed by compound washout and subsequent viral infection at apical side for 3 hrs followed by removal of virus and recurrent addition of compound on day 1 and 2 at basolateral side measured on day 3 by RT-qPCR analysis; format: functional; settings: time 75 hrs
[25] = test system: Respiratory syncytial virus; experiment: Antiviral activity against RSV infected in African green monkey assessed as reduction in viral replication in BAL at lung-deposited dose of 1.6 to 7.6 mg/kg, IT qd for 6 days measured for 15 days by RT-qPCR analysis relative to control; format: functional; set-up: scale not given: the % may be the effect or the level left; settings: dose 1.6-7.6 mg/kg, time 15 day, at 1.6 to 7.6 mg/kg
[26] = test system: Respiratory syncytial virus; experiment: Antiviral activity against RSV A2 infected in Normal human bronchial epithelial cells incubated for 3 days by ONE-Glo luciferase assay; format: functional, organism-based; settings: A2, Epithelial cell, 72 h
[27] = test system: Respiratory syncytial virus; experiment: Antiviral activity against RSV A2 infected in Normal human bronchial epithelial cells assessed as inhibition of intracellular virus replication; format: functional, organism-based; settings: A2, Epithelial cell
[28] = Prodrug conversion in Normal human bronchial epithelial cells assessed as ((2R,3S,4R,5S)-5-(4-aminopyrrolo[2,1-f][1,2,4]triazin-7-yl)-2-cyano-3,4-dihydroxytetrahydrofuran-2-yl)methyl tetrahydrogen triphosphate formation measured per million cells at 1 uM measured after 48 hrs by LC-MS/MS analysis; format: ADME, cell-based; settings: epithelial cell
[29] = test system: Respiratory syncytial virus; experiment: Antiviral activity against RSV A2 infected in H1-HeLa cells assessed as inhibition of intracellular virus replication; format: functional, organism-based; settings: human respiratory syncytial virus

For `COC(=O)[C@H](C)N[P@](=O)(OC[C@@]1(C#N)O[C@@H](c2ccc3c(N)ncnn23)[C@H](OC(=O)C(C)C)[C@@H]1OC(=O)C(C)C)Oc1ccccc1`, the Cmax [1] was 1990 nM, the t1/2 [2] was 38.8 h and the t1/2 [3] was 8.71 h. It also gave an IC50 [4] of 97 nM, an EC50 [5] of 6 nM and a CC50 at 120 h [6] of 3240 nM. The Activity [7] was “Active”, the EC50 [8] was less than 3 nM and the Activity [9] was “inactive”. For the same molecule, the AUC(0-t) at 24 h [10] was 1.74 µM·h, the Activity [11] was 0.5 log10/ml and the EC50 [12] was 90 nM. It also gave a Drug metabolism [13] of 113.3 pM, an Activity [14] of 0.2 log10/ml and a CC50 at 120 h [15] greater than 2000 nM. It also gave a half-life [16] of 7.01 h, an Activity [17] of 1.9 log10/ml and an EC50 [18] of less than 7 nM. It also gave an AUC [19] of 6.03 µM·h, an Activity [20] of 3.6 log10/ml and a Cmax [21] of 620 nM. It also gave a Cmax [22] of 610 nM, a Drug uptake [23] of 4.28 nmol/g and an Activity [24] of 2.5 log10/ml. For the same molecule, the Activity [25] was greater than 99.99%, the EC50 [26] was 15 nM and the IC50 [27] was less than 38 nM. The Drug metabolism [28] was 88.8 pM and the IC50 [29] was 84 nM.
